Converted amounts (≈) assume the structure as drawn. Some results are limits rather than exact numbers.

The solubility (kinetic) is solubility judged after dilution from a stock solution rather than from solid.

For this data set the following is noted: buffer; pH 7.4; 200.0 µM.
For the compound `Cc1ccc2cccc(OC(=O)/C=C\c3ccccc3)c2n1`, the solubility (kinetic) was determined as 16.8 µg/mL (≈ 58.1 µM).
In the case of `CCN1CCC(N(C)C2CCCCC2)CC1` it was 24 µg/mL (≈ 107 µM); in that of `COc1ccc(CCNc2nc(C)c(C(C)=O)s2)cc1OC`, 44.1 µg/mL (≈ 138 µM); in that of `CC(C)CC(=O)N1CCN(Cc2ccccc2Br)CC1`, 42 µg/mL (≈ 124 µM).
Regarding `O=C1Cc2cc(S(=O)(=O)N3CCNCC3)ccc2N1`, the solubility (kinetic) came to 39.1 µg/mL (≈ 139 µM).
In the case of `CCOCCCNC(=O)N[C@H](C(=O)OC)C(C)CC` (some centres undefined) it was above 41.2 µg/mL; in that of `CCOc1ccc(NC(=O)COC(=O)CC2CCCCC2)cc1`, 26.6 µg/mL (≈ 83.3 µM).
On to `COC(=O)CSc1nnc(CCc2ccccc2)n1C`, for which the kinetic solubility is above 43.7 µg/mL.
In the case of `COc1ccc(CNC(=O)N[C@@H](CC(C)C)C(=O)O)cc1OC` it was above 48.7 µg/mL; in that of `COc1ccc(F)cc1COc1nc(C)nc2ccccc12`, 28.3 µg/mL (≈ 94.9 µM); in that of `COc1cccc(-n2c(-c3ccccc3)c[nH]c2=S)c1`, 7.8 µg/mL (≈ 27.6 µM).
Next, `COC(=O)c1c(-c2cccc(C)c2)csc1NC(=O)C1CCCO1` (centres undefined): 11.1 µg/mL (≈ 32.1 µM); `CCOc1ccc(N/C(N)=N/c2nc(C)c(C)c(=O)[nH]2)cc1`: 2.3 µg/mL (≈ 7.63 µM).
Next, `Cc1ccc2sc(=O)[nH]c2c1`: 19.4 µg/mL (≈ 117 µM).
`COc1ccc(NC(=O)NCc2ccco2)cc1OC` came in with a solubility (kinetic) of 37.6 µg/mL (≈ 136 µM).
`COc1ccc(COC(=O)C2=C(C)NC(=O)NC2c2ccc(F)cc2)cc1` (centres undefined): the kinetic solubility was 3 µg/mL (≈ 8.1 µM).
Next, `COc1ccc(N(C=O)C(C(=O)Nc2c(C)cccc2C)c2ccccc2)cc1` (centres undefined): 1.6 µg/mL (≈ 4.12 µM); `c1ccc(-c2nccc3ccccc23)cc1`: 7.3 µg/mL (≈ 35.6 µM).
In the case of `CCOc1ccc(NC(=O)COC(=O)C2CC2C)cc1` (centres undefined) it was above 41.6 µg/mL; in that of `O=C(O)CCCC(=O)Nc1ccccc1Oc1ccccc1`, above 44.9 µg/mL.
On to `Cc1ccc(NC(=O)CN(C)C(=O)c2ccc(NS(=O)(=O)c3cccc([N+](=O)[O-])c3)cc2)cc1`, for which the solubility (kinetic) amounted to 11.6 µg/mL (≈ 24 µM).
In the case of `CCCCC(=O)Nc1ccccc1N1CCN(c2ccccc2)CC1` it was 8.1 µg/mL (≈ 24 µM); in that of `CN(C)CC#CCC(O)(c1ccccc1)c1ccccc1`, above 41.9 µg/mL; in that of `CC1CCN(C(=O)NC(=O)c2ccc(Cl)cc2)CC1`, above 42.1 µg/mL.
In the case of `CCN1CCN(Cc2c3ccccc3cc3ccccc23)CC1` it was 27.9 µg/mL (≈ 91.6 µM); in that of `O=C(NCCCO)c1c(O)c2cccc3c2n(c1=O)CCC3`, above 45.3 µg/mL; in that of `O=C(NCCc1ccccc1)c1ccc(Cl)c(S(=O)(=O)N2CCOCC2)c1`, 9.3 µg/mL (≈ 22.7 µM).
In the case of `Cc1ccc(N(CCC#N)C(=O)COC(=O)c2ccccn2)cc1` it was above 48.5 µg/mL; in that of `CCOC(=O)CSc1nc(-c2ccccc2)nc2ccc(C)cc12`, below 0.4 µg/mL.
In the case of `O=C(O)CC(NC(=O)C1CCCCC1)c1ccc(OC2CCCC2)cc1` (centres undefined), the solubility (kinetic) worked out at 53.4 µg/mL (≈ 149 µM).
In the case of `CC(=O)c1ccccc1NC(=O)COC(=O)c1cc[n+]([O-])cc1` it was above 47.1 µg/mL; in that of `Cc1ccccc1C(=O)Nc1cccc(NC(=O)c2cccnc2)c1`, 45.8 µg/mL (≈ 138 µM); in that of `CC(CCc1ccccc1)NC(=O)C1CCC1` (centres undefined), above 34.7 µg/mL.
Compound `CCOC(=O)C(CC(=O)O)NCc1ccco1` (centres undefined) came in with a solubility (kinetic) of 34.3 µg/mL (≈ 142 µM).
Turning to `Cc1ccc(NC(=S)NCc2ccccc2)cc1C`, the solubility (kinetic) came out at 5.1 µg/mL (≈ 18.9 µM).
For `Cc1ccc(/C=C/C(=O)N2CCCC(C(N)=O)C2)o1` (centres undefined), the kinetic solubility is above 39.3 µg/mL.
Turning to `O=C(Nc1c(O)c2ccccc2[nH]c1=O)c1ccco1`, the solubility (kinetic) was above 40.5 µg/mL.
Next, `CCN(CC(=O)NCC(=O)Nc1cccc(C)c1C)Cc1ccccc1`: above 53 µg/mL; `O=C(CN1C(=O)CNC1=O)Nc1cc(Cl)cc(Cl)c1`: above 45.3 µg/mL.
In the case of `CC1CCN(C(=O)c2ccccc2NC(=O)Cc2ccccc2)CC1` it was above 50.5 µg/mL; in that of `O=C(CSc1nc2ccccc2o1)Nc1nccs1`, 2 µg/mL (≈ 6.86 µM); in that of `C=CCN1C(=O)c2ccc(C(=O)N3CCC(C(N)=O)CC3)cc2C1=O`, 47.9 µg/mL (≈ 140 µM).
The compound `Cc1cc(C)cc(OCC(=O)N2CCN(c3ncccn3)CC2)c1` displayed a solubility (kinetic) above 49 µg/mL.
`Cc1ccccc1C(=O)OCC(=O)N(C)c1ccccc1` gave a solubility (kinetic) above 42.5 µg/mL.
In the case of `COc1cccc(-c2nc3ccc(N4CCN(C)CC4)cc3[nH]2)c1` it was 14.5 µg/mL (≈ 45 µM); in that of `Cc1nc(N)nc(SCc2ccc([N+](=O)[O-])cc2)c1N`, 16.1 µg/mL (≈ 55.3 µM).
With `COc1cccc(CNC(=O)CC(NC(C)=O)c2ccccc2)c1` (centres undefined), the solubility (kinetic) is above 49 µg/mL.
In the case of `CCN(CC)c1ccc(/C=C2\SC(N)=NC2=O)cc1` it was below 0.2 µg/mL; in that of `S=C(NCC1CCCO1)Nc1cccc(Cl)c1` (centres undefined), above 40.6 µg/mL; in that of `CCOC(=O)c1c(C)[nH]c(C)c1C(=O)COC(=O)Cc1ccc(OC)c(OC)c1`, above 60.5 µg/mL.
Next, `CCN(CC(=O)NC(=O)NC1CCCCC1)Cc1ccccc1`: 47 µg/mL (≈ 148 µM); `CC(=O)N1Cc2ccccc2CC1C(=O)N1CCN(c2ccccc2)CC1` (centres undefined): 43.5 µg/mL (≈ 120 µM).
In the case of `O=C(CNC(=O)c1ccc(=O)[nH]c1)Nc1ccc(F)c(F)c1` it was above 46.1 µg/mL; in that of `CN[C@H]1CC[C@@H](c2ccc(Cl)c(Cl)c2)c2ccccc21`, above 45.9 µg/mL.
`Cc1ccc(C(=O)Nc2ccc(C(F)(F)F)n(C)c2=O)cc1` had a solubility (kinetic) of 2.1 µg/mL (≈ 6.77 µM).
In the case of `CC(=O)c1sc(Nc2cccc(C)c2)nc1C` it was 3 µg/mL (≈ 12.2 µM); in that of `NC(=O)c1ccsc1NC(=O)COC(=O)CNC(=O)c1ccc(Cl)cc1`, 3.4 µg/mL (≈ 8.59 µM); in that of `CCOc1ccc(CCNC(=O)c2ccc(=O)[nH]c2)cc1OCC`, above 49.6 µg/mL.
Compound `COc1cc([N+](=O)[O-])cc2sc(NC(C)=O)nc12` displayed a solubility (kinetic) of 2.7 µg/mL (≈ 10.1 µM).
Next, `COc1cccc(Nc2nc(-c3sc(C)nc3C)cs2)c1`: 0.3 µg/mL (≈ 0.945 µM); `CCc1nn(C)c(N)c1C.Cl`: above 26.3 µg/mL.
Next, `O=[N+]([O-])c1ccc(Cl)c(S(=O)(=O)NCCc2ccccn2)c1`: above 51.3 µg/mL; `CC(CCc1ccccc1)NC(=O)COC(=O)c1cccn1C` (centres undefined): above 47.2 µg/mL; `COc1ccc(NC(=O)COc2ccc3c(c2)OCO3)cc1`: 39.5 µg/mL (≈ 131 µM).
In the case of `O=C(c1ccccc1)N1CCCC(C(=O)N2CCCCC2)C1` (centres undefined) it was above 45.1 µg/mL; in that of `Cc1ccccc1Cn1c(=O)n(C)c(=O)c2sccc21`, 5.9 µg/mL (≈ 20.6 µM).
The compound `Cc1onc(-c2ccccc2)c1C(=O)NCc1ccc(F)cc1` displayed a kinetic solubility of 7 µg/mL (≈ 22.6 µM).
In the case of `CC(C)C1Nc2ccc(C(=O)O)cc2C2C=CCC21` (centres undefined) it was above 38.6 µg/mL; in that of `CCCCn1c(NC(=O)c2ccco2)c(C(=O)OCC)c2nc3ccccc3nc21`, 4.9 µg/mL (≈ 12.1 µM).
Next, `CCN(Cc1cccc(F)c1)C(=O)c1ccc2ccccc2n1`: above 46.3 µg/mL; `CCOC(=O)NC(=O)COC(=O)c1cccc2ccccc12`: above 45.2 µg/mL; `N#Cc1ccccc1OCC(=O)NC(=O)NCc1ccco1`: 7.4 µg/mL (≈ 24.7 µM).
In the case of `COc1c(C(=O)Nc2nccs2)ccc2ccccc12` it was 17 µg/mL (≈ 59.8 µM); in that of `Cc1ccccc1NC(=S)NC(=O)C1CCCCC1`, 1 µg/mL (≈ 3.62 µM); in that of `Cc1ccc(C)c(NC(=O)CSc2nc(C)cs2)c1`, 39.9 µg/mL (≈ 136 µM).
As for `CCN1CCN(CC(=O)N2c3ccccc3Sc3ccccc32)CC1`, the solubility (kinetic) is above 53 µg/mL.
Consider `O=C(COC(=O)COc1ccc(Br)cc1)NCC1CCCO1` (centres undefined), for which the kinetic solubility was above 55.8 µg/mL.
As for `Cn1cccc1/C=C1/C(=O)NC(=O)N(Cc2ccc(F)cc2)C1=O`, the solubility (kinetic) is 5.4 µg/mL (≈ 16.5 µM).
Next, `O=C(CCNC(=O)c1ccc(Br)cc1)Nc1ncccc1O`: 52.3 µg/mL (≈ 144 µM); `CCNc1ccc(S(=O)(=O)N2CCCCC2)cn1`: above 40.4 µg/mL.
In the case of `CCOc1ncccc1C(=O)Nc1nnc(C2CC2)s1` it was above 43.6 µg/mL; in that of `NC(=O)c1ccc(NC(=O)CN2C(=O)NC3(CCCCCCC3)C2=O)cc1`, above 55.9 µg/mL; in that of `Cc1csc2c(NCCCN3CCOCC3)ncnc12`, above 43.9 µg/mL.
Next, `O=C(O)c1ccc(Nc2cccc(F)c2)c([N+](=O)[O-])c1`: above 41.4 µg/mL.
Take `N#CCc1nc2ccc(S(=O)(=O)N3CCOCC3)cc2s1`: the kinetic solubility was found to be 37.2 µg/mL (≈ 115 µM).
In the case of `Cc1onc(-c2ccccc2Cl)c1NC(=O)NCc1cccs1` it was 42.6 µg/mL (≈ 122 µM); in that of `COc1ccc(NC(C)C(=O)Nc2cccc(S(=O)(=O)N3CCOCC3)c2)cc1OC` (centres undefined), above 67.4 µg/mL; in that of `O=C1CSC(c2ccccc2)N1c1ccc([N+](=O)[O-])cc1` (centres undefined), 33.4 µg/mL (≈ 111 µM).
`CSc1cccc(NC(=O)CNC(=O)C2CCCCC2)c1` showed a kinetic solubility of 22.7 µg/mL (≈ 74.1 µM).
Next, `CC1CCCC(NC(=O)Cn2c(Cl)nc3c2c(=O)n(C)c(=O)n3C)C1C` (centres undefined): above 57.3 µg/mL; `CC1CCN(C(=O)CN2C(=O)COc3ccc(Cl)cc32)CC1`: above 48.4 µg/mL; `Cc1ccc(S(=O)(=O)N2CCCCC2)cc1C(=O)NCc1ccccn1`: 52 µg/mL (≈ 139 µM).
Next, `CCC1(CC)N=C(c2ccccc2)C(=S)N1`: above 34.9 µg/mL; `CC(=O)c1c(C)[nH]c(C(=O)OCc2csc(CC(=O)Nc3ccccc3C)n2)c1C`: 4.2 µg/mL (≈ 9.87 µM).
In the case of `COc1ccccc1CCC(=O)NNC(=O)c1ccccc1` it was above 44.8 µg/mL; in that of `CC(C)(C)n1cnnc1Sc1ccc([N+](=O)[O-])cn1`, above 41.9 µg/mL.
In the case of `CS(=O)(=O)N1CCN=C1SCc1ccccc1`, the kinetic solubility was above 40.6 µg/mL.
Next, `Cc1noc(C)c1C(=O)OCC(=O)N1CCc2ccccc21`: 4.8 µg/mL (≈ 16 µM); `COCC1CCN(Cc2nc(COc3ccccc3)no2)C1` (centres undefined): 37.2 µg/mL (≈ 123 µM).
In the case of `Cc1ccc(C(=O)NCCNC(=O)c2ccc(F)cc2)cn1` it was above 45.2 µg/mL; in that of `Cc1ccccc1NC(=O)c1cccc(S(=O)(=O)Nc2cccc(C(=O)O)c2)c1`, 34.6 µg/mL (≈ 84.3 µM); in that of `CN=C(c1ccco1)n1c(=S)nc(-c2ccco2)n(C)c1=S`, 39.6 µg/mL (≈ 119 µM).
On to `CCc1ccc2[nH]c(C(=O)N(C)c3ccc(F)cc3F)cc2c1`, for which the kinetic solubility was 1.7 µg/mL (≈ 5.41 µM).
Next, `CC(NC(=O)COC(=O)Cn1cc(C(F)(F)F)ccc1=O)c1ccccc1` (centres undefined): above 57.3 µg/mL.

These data come from PubChem BioAssay AID1996.
